Measured values: PubChem BioAssay (NCI)
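The compound was tested at five concentrations on cells cultured in 96-well plates, with a 48-hour exposure period. TGI: total growth inhibition.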

Legend:
Test in all cases: DTP human tumour cell line panel, 48 h
SK-MEL-28 melanoma = test system: SK-MEL-28 melanoma
OVCAR-3 ovarian = test system: OVCAR-3 ovarian
CCRF-CEM leukemia = test system: CCRF-CEM leukemia
HCC-2998 colon = test system: HCC-2998 colon
RPMI-8226 leukemia = test system: RPMI-8226 leukemia
KM12 colon = test system: KM12 colon
COLO 205 colon = test system: COLO 205 colon
SN12C renal = test system: SN12C renal
SF-539 CNS = test system: SF-539 CNS
EKVX NSCLC = test system: EKVX NSCLC
SF-295 CNS = test system: SF-295 CNS
NCI-H522 lung = test system: NCI-H522 lung
PC-3 prostate = test system: PC-3 prostate
SW-620 colon = test system: SW-620 colon
T-47D breast = test system: T-47D breast
OVCAR-8 ovarian = test system: OVCAR-8 ovarian
HS 578T breast = test system: HS 578T breast
SK-OV-3 ovarian = test system: SK-OV-3 ovarian
IGROV1 ovarian = test system: IGROV1 ovarian
MALME-3M melanoma = test system: MALME-3M melanoma
SF-268 CNS = test system: SF-268 CNS
A549 NSCLC = test system: A549 NSCLC
NCI/ADR-RES ovarian = test system: NCI/ADR-RES ovarian
HOP-62 NSCLC = test system: HOP-62 NSCLC
LOX IMVI melanoma = test system: LOX IMVI melanoma
CAKI-1 renal = test system: CAKI-1 renal
MDA-MB-231 breast = test system: MDA-MB-231 breast
OVCAR-5 ovarian = test system: OVCAR-5 ovarian
MDA-MB-435 = test system: MDA-MB-435
HCT-116 colon = test system: HCT-116 colon
NCI-H226 lung = test system: NCI-H226 lung
OVCAR-4 ovarian = test system: OVCAR-4 ovarian
DU-145 prostate = test system: DU-145 prostate
U251 CNS = test system: U251 CNS
SK-MEL-2 melanoma = test system: SK-MEL-2 melanoma
M14 melanoma = test system: M14 melanoma
HCT-15 colon = test system: HCT-15 colon
SNB-75 CNS = test system: SNB-75 CNS
UACC-62 melanoma = test system: UACC-62 melanoma
MCF7 breast = test system: MCF7 breast
HT29 colon = test system: HT29 colon
NCI-H23 lung = test system: NCI-H23 lung
RXF 393 renal = test system: RXF 393 renal
SNB-19 CNS = test system: SNB-19 CNS
K-562 leukemia = test system: K-562 leukemia
TK-10 renal = test system: TK-10 renal
MDA-N = test system: MDA-N
UO-31 renal = test system: UO-31 renal
BT-549 breast = test system: BT-549 breast
ACHN renal = test system: ACHN renal
HL-60(TB) leukemia = test system: HL-60(TB) leukemia
SK-MEL-5 melanoma = test system: SK-MEL-5 melanoma
786-0 renal = test system: 786-0 renal
UACC-257 melanoma = test system: UACC-257 melanoma
NCI-H460 lung = test system: NCI-H460 lung
A498 renal = test system: A498 renal
MOLT-4 leukemia = test system: MOLT-4 leukemia

Cc1ccc(C2C(C(=O)C(C)(C)C)N2S(=O)(=O)c2ccc(C)cc2)cc1 (configuration not stated)
TGI (SK-MEL-28 melanoma): 75.3 µM | TGI (OVCAR-3 ovarian): 62 µM | TGI (CCRF-CEM leukemia): 78.1 µM | TGI (HCC-2998 colon): 33.6 µM | TGI (RPMI-8226 leukemia): 64.2 µM | TGI (KM12 colon): > 100 µM | TGI (COLO 205 colon): 34.6 µM | TGI (SN12C renal): 40.6 µM | TGI (SF-539 CNS): 28.9 µM | TGI (EKVX NSCLC): 37 µM | TGI (SF-295 CNS): > 100 µM | TGI (NCI-H522 lung): 36.1 µM | TGI (PC-3 prostate): > 100 µM | TGI (SW-620 colon): 74.7 µM | TGI (T-47D breast): 52 µM | TGI (OVCAR-8 ovarian): 51.9 µM | TGI (HS 578T breast): 82.5 µM | TGI (SK-OV-3 ovarian): > 100 µM | TGI (IGROV1 ovarian): 46.5 µM | TGI (MALME-3M melanoma): 49.1 µM | TGI (SF-268 CNS): 94.6 µM | TGI (A549 NSCLC): > 100 µM | TGI (NCI/ADR-RES ovarian): 75.9 µM | TGI (HOP-62 NSCLC): 94.6 µM | TGI (LOX IMVI melanoma): 53.6 µM | TGI (CAKI-1 renal): 59.1 µM | TGI (MDA-MB-231 breast): 39.8 µM | TGI (OVCAR-5 ovarian): 49.3 µM | TGI (MDA-MB-435): 45.8 µM | TGI (HCT-116 colon): 35.4 µM | TGI (NCI-H226 lung): 55.1 µM | TGI (OVCAR-4 ovarian): 96.2 µM | TGI (DU-145 prostate): 38.6 µM | TGI (U251 CNS): 42 µM | TGI (SK-MEL-2 melanoma): > 100 µM | TGI (M14 melanoma): 35.6 µM | TGI (HCT-15 colon): 47.5 µM | TGI (SNB-75 CNS): 69.6 µM | TGI (UACC-62 melanoma): 30.7 µM | TGI (MCF7 breast): 62.3 µM | TGI (HT29 colon): 65.2 µM | TGI (NCI-H23 lung): 48.5 µM | TGI (RXF 393 renal): 46.1 µM | TGI (SNB-19 CNS): 57.5 µM | TGI (K-562 leukemia): 65.3 µM | TGI (TK-10 renal): 97.2 µM | TGI (MDA-N): 34.8 µM | TGI (UO-31 renal): 32.6 µM | TGI (BT-549 breast): 37.5 µM

CCOC(=O)c1nnsc1NC(=O)NN
TGI (SK-MEL-28 melanoma): > 100 µM | TGI (OVCAR-3 ovarian): > 100 µM | TGI (CCRF-CEM leukemia): > 100 µM | TGI (HCC-2998 colon): > 100 µM | TGI (RPMI-8226 leukemia): > 100 µM | TGI (KM12 colon): > 100 µM | TGI (ACHN renal): > 100 µM | TGI (COLO 205 colon): > 100 µM | TGI (SN12C renal): > 100 µM | TGI (HL-60(TB) leukemia): > 100 µM | TGI (SF-539 CNS): > 100 µM | TGI (EKVX NSCLC): > 100 µM | TGI (SF-295 CNS): > 100 µM | TGI (SK-MEL-5 melanoma): > 100 µM | TGI (NCI-H522 lung): > 100 µM | TGI (PC-3 prostate): > 100 µM | TGI (SW-620 colon): > 100 µM | TGI (T-47D breast): > 100 µM | TGI (OVCAR-8 ovarian): > 100 µM | TGI (HS 578T breast): > 100 µM | TGI (SK-OV-3 ovarian): > 100 µM | TGI (IGROV1 ovarian): > 100 µM | TGI (MALME-3M melanoma): > 100 µM | TGI (SF-268 CNS): > 100 µM | TGI (A549 NSCLC): > 100 µM | TGI (NCI/ADR-RES ovarian): > 100 µM | TGI (HOP-62 NSCLC): > 100 µM | TGI (LOX IMVI melanoma): > 100 µM | TGI (CAKI-1 renal): > 100 µM | TGI (MDA-MB-231 breast): > 100 µM | TGI (OVCAR-5 ovarian): > 100 µM | TGI (MDA-MB-435): > 100 µM | TGI (786-0 renal): > 100 µM | TGI (UACC-257 melanoma): > 100 µM | TGI (HCT-116 colon): > 100 µM | TGI (NCI-H226 lung): > 100 µM | TGI (DU-145 prostate): > 100 µM | TGI (U251 CNS): > 100 µM | TGI (NCI-H460 lung): > 100 µM | TGI (A498 renal): > 100 µM | TGI (SK-MEL-2 melanoma): > 100 µM | TGI (M14 melanoma): > 100 µM | TGI (HCT-15 colon): > 100 µM | TGI (SNB-75 CNS): > 100 µM | TGI (UACC-62 melanoma): > 100 µM | TGI (MCF7 breast): > 100 µM | TGI (HT29 colon): > 100 µM | TGI (NCI-H23 lung): > 100 µM | TGI (RXF 393 renal): > 100 µM | TGI (SNB-19 CNS): > 100 µM | TGI (K-562 leukemia): > 100 µM | TGI (TK-10 renal): > 100 µM | TGI (MDA-N): > 100 µM | TGI (UO-31 renal): > 100 µM | TGI (BT-549 breast): > 100 µM

O=c1[nH]nc(Cc2ccccc2)n1/N=C/c1ccc(/C=N/n2c(Cc3ccccc3)n[nH]c2=O)cc1
TGI (SK-MEL-28 melanoma): > 100 µM | TGI (OVCAR-3 ovarian): > 100 µM | TGI (CCRF-CEM leukemia): 50.7 µM | TGI (RPMI-8226 leukemia): > 100 µM | TGI (KM12 colon): > 100 µM | TGI (ACHN renal): > 100 µM | TGI (COLO 205 colon): > 100 µM | TGI (SN12C renal): > 100 µM | TGI (HL-60(TB) leukemia): > 100 µM | TGI (EKVX NSCLC): > 100 µM | TGI (SF-295 CNS): > 100 µM | TGI (MOLT-4 leukemia): 47 µM | TGI (SK-MEL-5 melanoma): > 100 µM | TGI (NCI-H522 lung): > 100 µM | TGI (PC-3 prostate): > 100 µM | TGI (SW-620 colon): > 100 µM | TGI (T-47D breast): > 100 µM | TGI (OVCAR-8 ovarian): > 100 µM | TGI (HS 578T breast): > 100 µM | TGI (IGROV1 ovarian): > 100 µM | TGI (MALME-3M melanoma): > 100 µM | TGI (SF-268 CNS): > 100 µM | TGI (A549 NSCLC): > 100 µM | TGI (NCI/ADR-RES ovarian): > 100 µM | TGI (HOP-62 NSCLC): > 100 µM | TGI (LOX IMVI melanoma): > 100 µM | TGI (CAKI-1 renal): > 100 µM | TGI (MDA-MB-231 breast): > 100 µM | TGI (OVCAR-5 ovarian): > 100 µM | TGI (MDA-MB-435): > 100 µM | TGI (786-0 renal): > 100 µM | TGI (UACC-257 melanoma): > 100 µM | TGI (HCT-116 colon): > 100 µM | TGI (NCI-H226 lung): > 100 µM | TGI (OVCAR-4 ovarian): > 100 µM | TGI (DU-145 prostate): > 100 µM | TGI (U251 CNS): > 100 µM | TGI (NCI-H460 lung): > 100 µM | TGI (A498 renal): > 100 µM | TGI (SK-MEL-2 melanoma): > 100 µM | TGI (M14 melanoma): > 100 µM | TGI (HCT-15 colon): > 100 µM | TGI (UACC-62 melanoma): > 100 µM | TGI (MCF7 breast): > 100 µM | TGI (HT29 colon): > 100 µM | TGI (NCI-H23 lung): > 100 µM | TGI (RXF 393 renal): > 100 µM | TGI (SNB-19 CNS): > 100 µM | TGI (K-562 leukemia): 50.5 µM | TGI (TK-10 renal): > 100 µM | TGI (MDA-N): > 100 µM | TGI (UO-31 renal): > 100 µM | TGI (BT-549 breast): > 100 µM
